Results: ChEMBL document CHEMBL1128563, “Quantitative structural activity relationship study of bis-tetraazacyclic compounds. A novel series of HIV-1 and HIV-2 inhibitors” (J Med Chem, 1995)

Columns and labels:
[1] = system: Human immunodeficiency virus 1; test: Inhibition of syncytium formation using HIV-1 IIIB strain gaint cell inhibition assay.; assay type: functional, organism-based; conditions: read-out: Log 1/EC50 (converted)
HuT78 = test: Cellular cytotoxicity against HUT-78 cells.; assay type: functional; conditions: Homo sapiens
[2] = system: Human immunodeficiency virus 1; test: Antiretroviral activity against HIV-1 infected HUT-78 cells.; assay type: functional, organism-based; conditions: Human immunodeficiency virus 1, HuT78; read-out: Log 1/EC50 (converted)
[3] = system: Human immunodeficiency virus 2; test: Antiretroviral activity against HIV-2 infected HUT-78 cells.; conditions: Human immunodeficiency virus 2, HuT78; read-out: Log 1/EC50 (converted)

Compound	EC50 [1] [nM]	CC50 (HuT78) [µM]	EC50 [2] [nM]	EC50 [3] [nM]
c1cc(CN2CCCNCCNCCCNCC2)nc(CN2CCCNCCNCCCNCC2)c1	8130	409	97.7	66.1
c1cc(CN2CCCNCCCNCCNCCC2)cc(CN2CCCNCCCNCCNCCC2)c1	–	403	324	646
c1ncc(CN2CCCNCCNCCCNCC2)cc1CN1CCCNCCNCCCNCC1	–	395	31.6	70.8
c1cc(CN2CCNCCCNCCNCC2)ccc1CN1CCNCCCNCCNCC1	–	216	166	234
Clc1cc(CN2CCCNCCNCCCNCC2)c(Cl)cc1CN1CCCNCCNCCCNCC1	331	59	10.7	2.45
c1cc(CCCN2CCCNCCNCCCNCC2)ccc1CCCN1CCCNCCNCCCNCC1	–	283	398	–
c1cc(CN2CCCNCCCNCCCNCC2)cc(CN2CCCNCCCNCCCNCC2)c1	–	191	2750	–
Fc1c(CN2CCCNCCNCCCNCC2)cccc1CN1CCCNCCNCCCNCC1	–	202	34.7	74.1
C(CCCN1CCCNCCNCCCNCC1)CCN1CCCNCCNCCCNCC1	–	307	692	708
O=[N+]([O-])c1cc(CN2CCCNCCNCCCNCC2)cc(CN2CCCNCCNCCCNCC2)c1	64.6	45	40.7	56.2
O=[N+]([O-])c1cc(CN2CCCNCCNCCCNCC2)ccc1CN1CCCNCCNCCCNCC1	3240	203	64.6	72.4
c1ccc(CN2CCCNCCNCCCNCC2)c(CN2CCCNCCNCCCNCC2)c1	–	169	1350	–
c1cc(CN2CCCNCCNCCNCCC2)ccc1CN1CCCNCCNCCNCCC1	–	500	25.1	58.9
C1CNCCNCCCN[C@H]([C@@H]2CNCCCNCCNCCCN2)CNC1	–	369	158	–
c1cc(CN2CCNCCCNCCNCC2)cc(CN2CCNCCCNCCNCC2)c1	–	192	40.7	61.7
c1cc(CN2CCCNCCCNCCCNCCC2)ccc1CN1CCCNCCCNCCCNCCC1	–	49	9120	–
Brc1c(CN2CCCNCCNCCCNCC2)cccc1CN1CCCNCCNCCCNCC1	–	144	138	245
Fc1c(F)c(CN2CCCNCCNCCCNCC2)c(F)c(F)c1CN1CCCNCCNCCCNCC1	31.6	48	7.94	7.94
Clc1c(Cl)c(CN2CCCNCCNCCCNCC2)c(Cl)c(CN2CCCNCCNCCCNCC2)c1Cl	6030	12	200	2.51

Compound	EC50 [1] [nM]	CC50 (HuT78) [µM]	EC50 [2] [nM]	EC50 [3] [nM]
c1cc(CN2CCCNCCCNCCNCCC2)cc(CN2CCCNCCNCCCNCC2)c1	–	422	85.1	759
c1ccc2c(CN3CCCNCCNCCCNCC3)cc(CN3CCCNCCNCCCNCC3)cc2c1	–	208	158	79.4
c1cc(CN2CCCNCCNCCCNCC2)ccc1CN1CCCNCCNCCCNCC1 [PLERIXAFOR]	47.9	241	3.98	6.03
NCCCNCCNCCCNCc1ccc(CN2CCCNCCNCCCNCC2)cc1	–	445	372	708
C1CNCCNCCCN(CCCN2CCCNCCNCCCNCC2)CCNC1	12300	622	138	–
c1cc(CN2CCCNCCNCCCNCC2)ccc1CN1CCCNCCNCCNCCC1	12.6	500	7.94	56.2
CCN1CCCN(CC)CCN(Cc2ccc(CN3CCCN(CC)CCN(CC)CCCN(CC)CC3)cc2)CCCN(CC)CC1	33900	342	7760	–
COc1cc(CN2CCCNCCNCCCNCC2)c(OC)cc1CN1CCCNCCNCCCNCC1	13.2	250	7.08	7.94
c1ccc2c(CN3CCCNCCNCCCNCC3)ccc(CN3CCCNCCNCCCNCC3)c2c1	63.1	56	55	38.9
c1cc(CC2CNCCNCCCNCCNC2)ccc1CC1CNCCNCCCNCCNC1	–	406	501	676
c1cc(CN2CCCNCCNCCCNCC2)cc(CN2CCCNCCNCCCNCC2)c1	4170	422	33.9	41.7
c1cc(CN2CCCNCCCNCCCNCCC2)cc(CN2CCCNCCCNCCCNCCC2)c1	–	193	16600	–
Brc1cc(CN2CCCNCCNCCCNCC2)cc(CN2CCCNCCNCCCNCC2)c1	–	192	85.1	53.7
C1CNCCNCCCN(CCN2CCCNCCNCCCNCC2)CCNC1	–	404	11200	–
Cc1cc(CN2CCCNCCNCCCNCC2)c(C)cc1CN1CCCNCCNCCCNCC1	33.1	250	7.59	1.29
c1cc(CN2CCCNCCNCCCNCC2)ccc1CN1CCCNCCCNCCCNCC1	–	225	–	–
c1ccc(-c2cc(CN3CCCNCCNCCCNCC3)cc(CN3CCCNCCNCCCNCC3)c2)cc1	316	198	204	24.5
c1cc(CN2CCCNCCNCCNCCC2)ccc1CN1CCCNCCCNCCCNCCC1	–	121	316	–
